Test results published in PubChem BioAssay (NCI).
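Grown in 96-well plates, cells were treated for 48 hours with each compound at five concentrations. Insufficient inhibition: endpoint recorded as highest concentration tested. The concentration for 50% growth inhibition is given as GI50. TGI denotes the concentration required for complete inhibition of growth.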

Key:
Experiment in all cases: NCI tumour cell line growth inhibition, 48 h
MCF7 breast = system: MCF7 breast
KM12 colon = system: KM12 colon
OVCAR-8 ovarian = system: OVCAR-8 ovarian
NCI-H23 lung = system: NCI-H23 lung
SF-268 CNS = system: SF-268 CNS
CCRF-CEM leukemia = system: CCRF-CEM leukemia
T-47D breast = system: T-47D breast
UACC-62 melanoma = system: UACC-62 melanoma
SF-295 CNS = system: SF-295 CNS
SW-620 colon = system: SW-620 colon
OVCAR-5 ovarian = system: OVCAR-5 ovarian
M14 melanoma = system: M14 melanoma
EKVX NSCLC = system: EKVX NSCLC
HCT-15 colon = system: HCT-15 colon
HOP-62 NSCLC = system: HOP-62 NSCLC
ACHN renal = system: ACHN renal
HL-60(TB) leukemia = system: HL-60(TB) leukemia
OVCAR-4 ovarian = system: OVCAR-4 ovarian
OVCAR-3 ovarian = system: OVCAR-3 ovarian
A549 NSCLC = system: A549 NSCLC
NCI-H522 lung = system: NCI-H522 lung
HS 578T breast = system: HS 578T breast
TK-10 renal = system: TK-10 renal
LOX IMVI melanoma = system: LOX IMVI melanoma
SN12C renal = system: SN12C renal
HCT-116 colon = system: HCT-116 colon
SNB-19 CNS = system: SNB-19 CNS
NCI/ADR-RES ovarian = system: NCI/ADR-RES ovarian
SK-MEL-5 melanoma = system: SK-MEL-5 melanoma
MDA-MB-231 breast = system: MDA-MB-231 breast
SK-OV-3 ovarian = system: SK-OV-3 ovarian
MOLT-4 leukemia = system: MOLT-4 leukemia
IGROV1 ovarian = system: IGROV1 ovarian
NCI-H226 lung = system: NCI-H226 lung
SK-MEL-28 melanoma = system: SK-MEL-28 melanoma
K-562 leukemia = system: K-562 leukemia
CAKI-1 renal = system: CAKI-1 renal
HOP-92 NSCLC = system: HOP-92 NSCLC
786-0 renal = system: 786-0 renal
MDA-MB-435 = system: MDA-MB-435
MALME-3M melanoma = system: MALME-3M melanoma
SF-539 CNS = system: SF-539 CNS
A498 renal = system: A498 renal
U251 CNS = system: U251 CNS
RXF 393 renal = system: RXF 393 renal
COLO 205 colon = system: COLO 205 colon
NCI-H460 lung = system: NCI-H460 lung
DU-145 prostate = system: DU-145 prostate
UO-31 renal = system: UO-31 renal
PC-3 prostate = system: PC-3 prostate
BT-549 breast = system: BT-549 breast
UACC-257 melanoma = system: UACC-257 melanoma
HT29 colon = system: HT29 colon

## COc1cc(/C=C2\CC3C4CCC5=CC(=O)CC[C@]5(C)C4CC[C@]3(C)C2=O)ccc1OCCCn1ccnc1 (stereo partly specified)
MCF7 breast
  GI50: 4.02 µM
  TGI: 19.9 µM
KM12 colon
  GI50: 3.75 µM
  TGI: 20 µM
OVCAR-8 ovarian
  GI50: 5.93 µM
  TGI: 22.1 µM
NCI-H23 lung
  GI50: 2.22 µM
  TGI: 4.43 µM
SF-268 CNS
  GI50: 13.6 µM
  TGI: 34.4 µM
CCRF-CEM leukemia
  GI50: 3.35 µM
  TGI: 10 µM
T-47D breast
  GI50: 5.23 µM
  TGI: 19 µM
UACC-62 melanoma
  GI50: 5.18 µM
  TGI: 24.9 µM
SF-295 CNS
  GI50: 2.47 µM
  TGI: 7.41 µM
SW-620 colon
  GI50: 8.23 µM
  TGI: 23.1 µM
OVCAR-5 ovarian
  GI50: 18.6 µM
  TGI: 37.9 µM
M14 melanoma
  GI50: 5.87 µM
  TGI: 23.7 µM
EKVX NSCLC
  GI50: 17.6 µM
  TGI: 45 µM
HCT-15 colon
  GI50: 4.03 µM
  TGI: 16.2 µM
HOP-62 NSCLC
  GI50: 11.8 µM
  TGI: 25.2 µM
ACHN renal
  GI50: 10.2 µM
  TGI: 21.8 µM
HL-60(TB) leukemia
  GI50: 2.86 µM
  TGI: 10.2 µM
OVCAR-4 ovarian
  GI50: 12.4 µM
  TGI: > 100 µM
OVCAR-3 ovarian
  GI50: 5.17 µM
  TGI: 19.4 µM
A549 NSCLC
  GI50: 5.32 µM
  TGI: 21.7 µM
NCI-H522 lung
  GI50: 3.8 µM
  TGI: 16.1 µM
HS 578T breast
  GI50: 8.45 µM
  TGI: 29.8 µM
TK-10 renal
  GI50: 15.1 µM
  TGI: 31.2 µM
LOX IMVI melanoma
  GI50: 3.75 µM
  TGI: 14.4 µM
SN12C renal
  GI50: 1.76 µM
  TGI: 8.5 µM
HCT-116 colon
  GI50: 2.7 µM
  TGI: 13.1 µM
SNB-19 CNS
  GI50: 21.6 µM
  TGI: > 100 µM
NCI/ADR-RES ovarian
  GI50: 4.51 µM
  TGI: 18.5 µM
SK-MEL-5 melanoma
  GI50: 2.07 µM
  TGI: 7.1 µM
MDA-MB-231 breast
  GI50: 5.04 µM
  TGI: 21 µM
SK-OV-3 ovarian
  GI50: 15.7 µM
  TGI: 30.2 µM
MOLT-4 leukemia
  GI50: 4.09 µM
  TGI: 18.9 µM
IGROV1 ovarian
  GI50: 9.13 µM
  TGI: 29.5 µM
NCI-H226 lung
  GI50: 11.2 µM
  TGI: 27.5 µM
SK-MEL-28 melanoma
  GI50: 6.55 µM
  TGI: 25.9 µM
K-562 leukemia
  GI50: 2.69 µM
  TGI: 12.9 µM
CAKI-1 renal
  GI50: 8.97 µM
  TGI: 26.9 µM
HOP-92 NSCLC
  GI50: 6.22 µM
  TGI: 22.8 µM
786-0 renal
  GI50: 11.6 µM
  TGI: 23.8 µM
MDA-MB-435
  GI50: 5.04 µM
  TGI: 25.6 µM
MALME-3M melanoma
  GI50: 3.11 µM
  TGI: 13.5 µM
SF-539 CNS
  GI50: 7.21 µM
  TGI: 21.7 µM
A498 renal
  GI50: 11.6 µM
  TGI: 23.9 µM
U251 CNS
  GI50: 9.09 µM
  TGI: 21.2 µM
RXF 393 renal
  GI50: 0.0969 µM
  TGI: 6.94 µM
COLO 205 colon
  GI50: 4.52 µM
  TGI: 22.7 µM
NCI-H460 lung
  GI50: 4.68 µM
  TGI: 24.5 µM
DU-145 prostate
  GI50: 11.8 µM
  TGI: 24.1 µM
UO-31 renal
  GI50: 4.36 µM
  TGI: 16.2 µM
PC-3 prostate
  GI50: 4.1 µM
  TGI: 20.2 µM
BT-549 breast
  GI50: 4.45 µM
  TGI: 33.4 µM
UACC-257 melanoma
  GI50: 2.1 µM
  TGI: 7.47 µM
HT29 colon
  GI50: 0.794 µM
  TGI: 11.6 µM
